In patent US11958821B2, “Phenethylamine compounds salts, polymorphic forms and methods of use thereof” (Terran Biosciences Inc., priority 2021, dated 2024):
Like-named read-outs stand apart in the source and are kept apart here.

Tests used:
[1] = cited from earlier work
[2] = cited from earlier work; remark: listed apart in the source
[3] = Solid-form stability of MBDB maleate forms (ball milling, drying, interconversion slurry); assay type: physicochemical
Method: During the screen, a single crystal Maleate 1 of sufficient size and quality was obtained from a vapor diffusion experiment with ethanol and hexane. The crystal structure is reported elsewhere but the data confirmed the anhydrous/unsolved nature of the material. […] Two new crystalline forms of MBDB Maleate were observed during the screening designated as MBDB Maleate 2 and MBDB Maleate 3 (FIG. 96, 97). Additional characterization of these samples was conducted to better understand the nature of the materials produced, as shown below. MBDB Maleate 2 was generated once from a cooling crystallization from dioxane. The proton nuclear magnetic resonance (NMR) spectrum was consistent with a monomaleate salt of MBDB and contained residual dioxane. Only a limited amount of material was recovered so the only additional characterization that could be completed was differential scanning calorimetry (DSC). The DSC thermogram appears consistent with an anhydrous/unsolvated form with a likely melt at 96° C. (FIG. 100). […] An attempt was made to reproduce Maleate 2 using the same conditions and seeds of Maleate 2. PXRD analysis of the recovered solids however was consistent with Maleate 1. MBDB Maleate 3 was isolated from an evaporation experiment involving chloroform and ethyl acetate. NMR analysis of the material was consistent with a mono-maleate salt of MBDB. […]

[4] = Physical stability of MBDB salts at 40° C./75% RH; assay type: physicochemical
Method: During the screen, a single crystal Maleate 1 of sufficient size and quality was obtained from a vapor diffusion experiment with ethanol and hexane. The crystal structure is reported elsewhere but the data confirmed the anhydrous/unsolved nature of the material. […] Two new crystalline forms of MBDB Maleate were observed during the screening designated as MBDB Maleate 2 and MBDB Maleate 3 (FIG. 96, 97). Additional characterization of these samples was conducted to better understand the nature of the materials produced, as shown below. MBDB Maleate 2 was generated once from a cooling crystallization from dioxane. The proton nuclear magnetic resonance (NMR) spectrum was consistent with a monomaleate salt of MBDB and contained residual dioxane. Only a limited amount of material was recovered so the only additional characterization that could be completed was differential scanning calorimetry (DSC). The DSC thermogram appears consistent with an anhydrous/unsolvated form with a likely melt at 96° C. (FIG. 100). […] An attempt was made to reproduce Maleate 2 using the same conditions and seeds of Maleate 2. PXRD analysis of the recovered solids however was consistent with Maleate 1. MBDB Maleate 3 was isolated from an evaporation experiment involving chloroform and ethyl acetate. NMR analysis of the material was consistent with a mono-maleate salt of MBDB. Thermal analysis was consistent with an anhydrous/unsolvated material with a likely melting point of 73° C. (FIG. 101). […] No additional characterization was completed on this sample due to the limited amount of material that was recovered.

[5] = Dynamic vapor sorption (DVS) analysis with post-DVS XRPD; assay type: physicochemical
Method: DVS analysis was carried out using a TA Instruments Q5000 Dynamic Vapor Sorption analyzer. The instrument was calibrated with standard weights and a sodium bromide standard for humidity. Approximately 5-25 mg of sample was loaded into a metal-coated quartz pan for analysis. The sample was analyzed at 25° C. with a maximum equilibration time of one hour in 10% relative humidity (RH) steps from 5 to 95% RH (adsorption cycle) and from 95 to 5% RH (desorption cycle). The movement from one step to the next occurred either after satisfying the equilibrium criterion of 0.01% weight change or, if the equilibrium criterion was not met, after one hour. The percent weight change values were calculated using Microsoft Excel®.

[6] = test system: Male Sprague-Dawley rats; experiment: Rat elevated zero-maze study with MDAI and chlordiazepoxide; assay type: in vivo
Method: Three rats from the vehicle group, 3 rats from the 2.5 mg/kg MDAI group, and 3 rats from the CDP group were tested on a separate day from the other rats.

[7] = test system: participants diagnosed with at least moderate post-traumatic stress disorder (PTSD); experiment: Double-blind, randomized, placebo-controlled clinical trial of MDAI-assisted psychotherapy in PTSD; assay type: in vivo, human
Method: A multicenter, randomized, double-blind, placebo-controlled trial is conducted to assess the efficacy and safety of MDAI-assisted psychotherapy versus psychotherapy with placebo control in participants diagnosed with at least moderate post-traumatic stress disorder (PTSD).
This multicenter, randomized, double-blind, placebo-controlled trial is conducted at various sites in the United States with IRB approval from each study site. A flexible dose of MDAI hydrochloride salt or placebo, followed by a supplemental half-dose unless contraindicated by patient's previous response or medical history, is also administered during the Treatment Period with psychotherapy in at least 3 blinded monthly Experimental Sessions. The Supplemental Dose extends the duration of drug effects on the participants during an Experimental Session. An optional Risk Evaluation and Mitigation Strategy (REMS) Protocol may be implemented for MDAI and placebo-groups. The Treatment Period lasts for approximately 12 weeks. During the Treatment Period, each Experimental Session is followed by three Intervening Sessions of non-drug psychotherapy. Each Experimental Session involves an overnight stay. The Primary Outcome measure, the change in Clinician Administered PTSD Scale for DSM-5 (CAPS-5), is determined by a blinded Independent Rater (IR) pool multiple times throughout the study. The study consists of separate periods for each participant. Initially, prospective participants undergo a Screening Period involving an initial eligibility assessment, a medical history intake, informed consent, and enrollment of eligible participants. Next, a Preparation Period is undertaken for enrolled participants involving medication tapering and clinical baseline assessments to confirm each participant meets enrollment criteria. As part of the Preparation Period, a detailed assessment of co-morbidities to PTSD is recorded. Participants may remain on prescribed courses of selective serotonin reuptake inhibitor (SSRI) or serotonin and norepinephrine reuptake inhibitor (SNRI) treatment. Dosages and/or frequency of administration of a prescribed SSRI or SNRI may be adjusted to fit within study parameters. Participants may be required to taper a prescribed course of medication in order to maintain eligibility within the study. The Treatment Period consists of three monthly Experimental Sessions and associated Intervening Sessions of integrative behavioral psychotherapy. The Treatment Period lasts approximately 12 weeks. Following the Treatment Period is a Follow-up Period and Study Conclusion. During the Follow-up Period and Study Conclusion, participants complete 4 weeks with no study visits, followed by a Study Conclusion visit.
This study compares the effects of three blinded Experimental Sessions of psychotherapy in combination with flexible doses of MDAI or placebo administered as described below. Non-drug preparatory and intervening psychotherapy sessions are also included. Patient's weight is determined for dosage calculation. Initial dose is 100 mg unless this will result in a dosage of less than 1.5 mg/kg of patient weight. Initial dose thereby adjusted upward in 50 mg increments to deliver the lowest dose possible of at least 1.5 mg/kg of patient weight. Initial dose for Experimental Session 2 and 3 is cumulative dose calculated by adding the initial dose plus REMS protocol dose used the previous Experimental Session for each patient.
Randomization occurs prior to the initiation of Experimental Session 1. […]

[8] = cited from earlier work; remark: listed apart in the source
[9] = oral, people, MDAI Dosages (psychonautwiki)

CCC(Cc1ccc2c(c1)OCO2)NC (stereo not shown) [MBDB, 1-(benzo[d][1,3]dioxol-5-yl)-N-methylbutan-2-amine]
Oral dose for Drug Activity Level Threshold [1, 9]: 40 mg | Oral dose for drug activity level Very Strong [1, 9]: ≥300 mg | Effects: Coming Down, Time After Dose ([2]; Duration of effects of MBDB in people, adapted from PiHKAL 1991): ~90 min | Reported time to achieve peak effects ([2]; after dosing): 0.75 to 1 h | Oral MBDB Dose, Drug Activity Level: Very Strong ([2]; oral, people): ≥350 mg

CCC(Cc1ccc2c(c1)OCO2)NC.O=C(O)/C=C\C(=O)O (stereo not shown) [Maleate 1]
Stability to ball milling (recovered solids vs starting material) ([3]; ball milled): stable under mechanical stressing | Physical stability by PXRD ([4]; 40° C./75% RH for 50 days): no change | Physical Stability ([4]; 40° C./75% RH overnight): No change | Physical Stability ([4]; after 1 day at 40° C./75% RH): No visible change | Hygroscopicity by DVS ([5]; 25° C., 5 to 95% RH): minimal water sorption over RH range | DVS weight gain ([5]; at 95% RH, listed as MBDB Maleate Form1): 0.6% wt gain | Hygroscopic? ([5]; based on moisture uptake at 95% observed during DVS analysis): Slightly

CCC(Cc1ccc2c(c1)OCO2)NC.O=C(O)/C=C\C(=O)O (stereo not shown) [Maleate 3]
Form stability on drying (PXRD) ([3]; mixture of Maleate 3 and Maleate 1 dried at 46° C. overnight, recovered solids Maleate 1): metastable under these conditions

NC1Cc2cc3c(cc2C1)OCO3 [MDAI, 5,6-methylenedioxy-2-aminoindane]
Percentage of time in the open arms (% TO) ([6]; 0.625 mg/kg ip): numerical increase in % TO that was greater than vehicle or any other dose of MDAI | Percentage of time in the open arms (% TO) ([6]; doses too low or too high (0.15, 0.31, 1.25, 2.5)): opposite effect on % TO | Total open arm entries ([6]; higher and lower doses): trended towards an anxiogenic effect | Total open arm entries ([6]; middle dose): increase vs placebo that trended towards significance | Daytime sleepiness (ESS) ([7]; Study Conclusion): significant improvement in lessening daytime sleepiness | Clinician-rated functional impairment score (SDS) ([7]; Study Conclusion, vs placebo): significant improvement in clinician-rated functional impairment score | Depression (HAM-D) ([7]; Study Conclusion, vs placebo): significant improvement depression | Change in CAPS-5 assessment ([7]; Study Conclusion, vs placebo, hydrochloride salt with psychotherapy): significant mean reduction in CAPS-assessment compared to the placebo group | Adverse anxiogenic incidents ([7]; vs placebo-treated controls): without a significant increase in adverse anxiogenic incidents | Reported time to achieve peak effects ([1]; after dosing): 0.75 to 2 h

CCNC(C)Cc1ccc2c(c1)OCO2 (stereo not shown) [MDE, N-ethyl-3,4-methylenedioxyamphetamine]
Reported time to achieve peak effects ([8]; after dosing): 1 to 2 h | Oral dose for drug activity level Very Strong ([8]; oral): ≥225 mg
